Laboratory results: the supplement of paper PMC10307832

Legend:
Assay in all cases: relative viability (nuclei count vs DMSO), 5 days (fraction); higher = more cells survive
A-427 = tested on: A-427
Summary of the method: (§1)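 Lung cancer cell lines were seeded in 1536-well plates and dosed by pin tool the next day, with either a single drug or a fixed anchor-drug dose combined with five library-drug doses (not always all listed) spaced in √10 steps. Five days later, one step fixed the cells and stained their nuclei (final 0.05% Triton X-100, 1% formaldehyde, 1 ug/ml Hoechst), and nuclei were counted on 4× images. Relative viability is the nuclei count in treated wells divided by the count in vehicle wells, and each value is the median of duplicate plates.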

CAL-12T = tested on: CAL-12T
Summary of the method: as §1

COR-L 105 = tested on: COR-L 105
Summary of the method: as §1

EMC-BAC-2 = tested on: EMC-BAC-2
Summary of the method: as §1

HARA = tested on: HARA
Summary of the method: as §1

HCC-366 = tested on: HCC-366
Summary of the method: as §1

HCC-827 = tested on: HCC-827
Summary of the method: as §1

HOP-62 = tested on: HOP-62
Summary of the method: as §1

LCLC-103H = tested on: LCLC-103H
Summary of the method: as §1

NCI-H1395 = tested on: NCI-H1395
Summary of the method: as §1

NCI-H1437 = tested on: NCI-H1437
Summary of the method: as §1

NCI-H1755 = tested on: NCI-H1755
Summary of the method: as §1

NCI-H1792 = tested on: NCI-H1792
Summary of the method: as §1

NCI-H1915 = tested on: NCI-H1915
Summary of the method: as §1

NCI-H2009 = tested on: NCI-H2009
Summary of the method: as §1

NCI-H2228 = tested on: NCI-H2228
Summary of the method: as §1

NCI-H23 = tested on: NCI-H23
Summary of the method: as §1

NCI-H460 = tested on: NCI-H460
Summary of the method: as §1

NCI-H727 = tested on: NCI-H727
Summary of the method: as §1

SK-LU-1 = tested on: SK-LU-1
Summary of the method: as §1

SW 1573 = tested on: SW 1573
Summary of the method: as §1

COc1nc(C)cnc1NS(=O)(=O)c1cccnc1-c1ccc(-c2nnco2)cc1 [Zibotentan] + C[C@]1(O)C[C@@H](c2nc(-c3ccc4ccc(-c5ccccc5)nc4c3)c3c(N)nccn32)C1 [Linsitinib] (partner 1 µM)
relative viability (A-427; first compound 0.08 µM): 1.12 | relative viability (A-427; first compound 0.253 µM): 1.17 | relative viability (A-427; first compound 0.8 µM): 1.14 | relative viability (A-427; first compound 2.53 µM): 1.12 | relative viability (CAL-12T; first compound 0.08 µM): 0.903 | relative viability (CAL-12T; first compound 0.253 µM): 0.876 | relative viability (CAL-12T; first compound 0.8 µM): 0.889 | relative viability (CAL-12T; first compound 2.53 µM): 0.634 | relative viability (COR-L 105; first compound 0.08 µM): 1.02 | relative viability (COR-L 105; first compound 0.253 µM): 0.871 | relative viability (COR-L 105; first compound 0.8 µM): 0.986 | relative viability (COR-L 105; first compound 2.53 µM): 0.919 | relative viability (EMC-BAC-2; first compound 0.08 µM): 0.895 | relative viability (EMC-BAC-2; first compound 0.253 µM): 0.785 | relative viability (EMC-BAC-2; first compound 0.8 µM): 0.823 | relative viability (EMC-BAC-2; first compound 2.53 µM): 0.905 | relative viability (HARA; first compound 0.08 µM): 1.24 | relative viability (HARA; first compound 0.253 µM): 0.945 | relative viability (HARA; first compound 0.8 µM): 0.955 | relative viability (HARA; first compound 2.53 µM): 0.902 | relative viability (HCC-366; first compound 0.08 µM): 0.7 | relative viability (HCC-366; first compound 0.253 µM): 0.586 | relative viability (HCC-366; first compound 0.8 µM): 0.518 | relative viability (HCC-366; first compound 2.53 µM): 0.794 | relative viability (HCC-827; first compound 0.08 µM): 0.994 | relative viability (HCC-827; first compound 0.253 µM): 0.993 | relative viability (HCC-827; first compound 0.8 µM): 0.98 | relative viability (HCC-827; first compound 2.53 µM): 0.988 | relative viability (HOP-62; first compound 0.08 µM): 0.805 | relative viability (HOP-62; first compound 0.253 µM): 1.06 | relative viability (HOP-62; first compound 0.8 µM): 0.992 | relative viability (HOP-62; first compound 2.53 µM): 1.29 | relative viability (LCLC-103H; first compound 0.08 µM): 1.09 | relative viability (LCLC-103H; first compound 0.253 µM): 0.951 | relative viability (LCLC-103H; first compound 0.8 µM): 1.06 | relative viability (LCLC-103H; first compound 2.53 µM): 1.2 | relative viability (NCI-H1395; first compound 0.08 µM): 1.39 | relative viability (NCI-H1395; first compound 0.253 µM): 1.07 | relative viability (NCI-H1395; first compound 0.8 µM): 1.05 | relative viability (NCI-H1395; first compound 2.53 µM): 1.08 | relative viability (NCI-H1437; first compound 0.08 µM): 1.21 | relative viability (NCI-H1437; first compound 0.253 µM): 1 | relative viability (NCI-H1437; first compound 0.8 µM): 0.939 | relative viability (NCI-H1437; first compound 2.53 µM): 1.07 | relative viability (NCI-H1755; first compound 0.08 µM): 0.99 | relative viability (NCI-H1755; first compound 0.253 µM): 0.967 | relative viability (NCI-H1755; first compound 0.8 µM): 1.03 | relative viability (NCI-H1755; first compound 2.53 µM): 1.03 | relative viability (NCI-H1792; first compound 0.08 µM): 0.426 | relative viability (NCI-H1792; first compound 0.253 µM): 0.448 | relative viability (NCI-H1792; first compound 0.8 µM): 0.396 | relative viability (NCI-H1792; first compound 2.53 µM): 0.556 | relative viability (NCI-H1915; first compound 0.08 µM): 0.917 | relative viability (NCI-H1915; first compound 0.253 µM): 1.19 | relative viability (NCI-H1915; first compound 0.8 µM): 1.11 | relative viability (NCI-H1915; first compound 2.53 µM): 1.08 | relative viability (NCI-H2009; first compound 0.08 µM): 1.14 | relative viability (NCI-H2009; first compound 0.253 µM): 1.05 | relative viability (NCI-H2009; first compound 0.8 µM): 1.2 | relative viability (NCI-H2009; first compound 2.53 µM): 1.22 | relative viability (NCI-H2228; first compound 0.08 µM): 0.722 | relative viability (NCI-H2228; first compound 0.253 µM): 0.467 | relative viability (NCI-H2228; first compound 0.8 µM): 0.903 | relative viability (NCI-H2228; first compound 2.53 µM): 0.728 | relative viability (NCI-H23; first compound 0.08 µM): 0.614 | relative viability (NCI-H23; first compound 0.253 µM): 0.545 | relative viability (NCI-H23; first compound 0.8 µM): 0.653 | relative viability (NCI-H23; first compound 2.53 µM): 0.477 | relative viability (NCI-H460; first compound 0.08 µM): 0.789 | relative viability (NCI-H460; first compound 0.8 µM): 0.803 | relative viability (NCI-H460; first compound 2.53 µM): 0.742 | relative viability (NCI-H727; first compound 0.08 µM): 0.208 | relative viability (NCI-H727; first compound 0.253 µM): 0.322 | relative viability (NCI-H727; first compound 0.8 µM): 0.248 | relative viability (NCI-H727; first compound 2.53 µM): 0.314 | relative viability (SK-LU-1; first compound 0.08 µM): 0.833 | relative viability (SK-LU-1; first compound 0.253 µM): 0.888 | relative viability (SK-LU-1; first compound 0.8 µM): 1.15 | relative viability (SK-LU-1; first compound 2.53 µM): 1.22 | relative viability (SW 1573; first compound 0.08 µM): 1.04 | relative viability (SW 1573; first compound 0.253 µM): 0.783 | relative viability (SW 1573; first compound 0.8 µM): 0.863 | relative viability (SW 1573; first compound 2.53 µM): 0.878
